Laboratory results: US10570116B2, “1,4-dicarbonyl-piperidyl derivatives” (Merck Patent GmbH, priority 2015, dated 2020)
pIC50: −log10 of the molar value. Like-named read-outs stand apart in the source and are kept apart here.

Legend:
Tankyrases = assay: Measurement of cellular inhibition of Tankyrase (Axin2 level, Luminex based assay, DLD1 cells); assay type: cell-based; settings: increase of Axin2 level, 24 hours, read-out: EC50 [M] TNKS cellular assay
TNKS1 = TNKS1 (Homo sapiens (Human), UniProt O95271); assay: biochemical; assay type: biochemical; settings: for IC50: GST-tagged Tnks-1 (1023-1327 aa), read-out: IC50 [M] TNKS1 ELISA
TNKS2 = TNKS2 (Homo sapiens (Human), UniProt Q9H2K2); assay: biochemical; assay type: biochemical; settings: for IC50: GST-tagged Tnks-2 (873-1166 aa), read-out: IC50 [M] TNKS2 ELISA

Row | pIC50 (TNKS1) | pIC50 (TNKS2) | Structure (SMILES) | EC50 (Tankyrases) [M] | IC50 (TNKS1) [M] | IC50 (TNKS2) [M]
1 |  |  | COC(=O)c1cccc(C(=O)C2CCN(C(=O)C[C@H](C)Cc3nc4c(C)cccc4c(=O)[nH]3)CC2)c1 [Compound C42, 3-{1-[(R)-3-Methyl-4-(8-methyl-4-oxo-3,4-dihydro-quinazolin-2-yl)-butyryl]-piperidine-4-carbonyl}-benzoic Acid Methyl Ester] | 2.5e-08 |  | 
2 |  |  | CC(C)CC(CC(=O)N1CCC(C(=O)c2cnn(C)c2)CC1)Cc1nc2ccccc2c(=O)[nH]1 (stereo in doubt) [Compound C10, 2-((S)-4-Methyl-2-{2-[4-(1-methyl-1H-pyrazole-4-carbonyl)-piperidin-1-yl]-2-oxo-ethyl}-pentyl)-3H-quinazolin-4-one] | 9e-08 |  | 
3 |  |  | Cc1cc(F)cc2c(=O)[nH]c(C[C@@H](C)CC(=O)N3CCC(C(=O)c4cccc(C(=O)O)c4)CC3)nc12 [Compound C46, 3-{1-[(R)-4-(6-Fluoro-8-methyl-4-oxo-3,4-dihydro-quinazolin-2-yl)-3-methyl-butyryl]-piperidine-4-carbonyl}-benzoic Acid] | 1e-05 | 8.2e-09 | 2.8e-09
4 |  |  | C[C@H](CC(=O)N1CCC(C(=O)c2cnn(C)c2)CC1)Cc1nc2ccccc2c(=O)[nH]1 [Compound C2, 2-{(S)-2-Methyl-4-[4-(1-methyl-1H-pyrazole-4-carbonyl)-piperidin-1-yl]-4-oxo-butyl}-3H-quinazolin-4-one] | 4.7e-09 |  | 
5 |  |  | Cn1cc(C(=O)C2CCN(C(=O)C(C)(C)CCc3nc4ccccc4c(=O)[nH]3)CC2)cn1 [Compound C13, 2-{3,3-Dimethyl-4-[4-(1-methyl-1H-pyrazole-4-carbonyl)-piperidin-1-yl]-4-oxo-butyl}-3H-quinazolin-4-one] | 2.3e-06 | 6.1e-07 | 4.2e-07
6 |  |  | COC(=O)c1cccc(C(=O)C2CCN(C(=O)CC(C)(C)Cc3nc4c(C)cccc4c(=O)[nH]3)CC2)c1 [Compound C36, 3-{1-[3,3-Dimethyl-4-(8-methyl-4-oxo-3,4-dihydro-quinazolin-2-yl)-butyryl]-piperidine-4-carbonyl}-benzoic acid methyl ester] | 3.4e-09 | 7.9e-10 | 2.1e-09
7 |  |  | COC(=O)c1ccc(C(=O)C2CCN(C(=O)CC(C)(C)Cc3nc4c(C)cccc4c(=O)[nH]3)CC2)cc1C [Compound C40, 4-{1-[3,3-Dimethyl-4-(8-methyl-4-oxo-3,4-dihydro-quinazolin-2-yl)-butyryl]-piperidine-4-carbonyl}-2-methyl-benzoic Acid Methyl Ester] | 2.9e-09 | 1.5e-09 | 4.7e-09
8 |  |  | CN(C)Cc1ccc(C(=O)C2CCN(C(=O)CC(C)(C)Cc3nc4ccccc4c(=O)[nH]3)CC2)cc1 [Compound C48, 2-{4-[4-(4-Dimethylaminomethyl-benzoyl)-piperidin-1-yl]-2,2-dimethyl-4-oxo-butyl}-3H-quinazolin-4-one] | 1.3e-07 | 1.4e-08 | 5.3e-09
9 |  |  | CC(C)n1cc(C(=O)C2CCN(C(=O)C[C@@H](C)Cc3nc4ccccc4c(=O)[nH]3)CC2)cn1 [Compound C4, 2-{(S)-4-[4-(1-Isopropyl-1H-pyrazole-4-carbonyl)-piperidin-1-yl]-2-methyl-4-oxo-butyl}-3H-quinazolin-4-one] | 4.7e-09 |  | 
10 |  |  | Cc1cccc2c(=O)[nH]c(CC(C)(C)CC(=O)N3CCC(C(=O)c4cccc(C(=O)O)c4)CC3)nc12 [Compound C37, 3-{1-[3,3-Dimethyl-4-(8-methyl-4-oxo-3,4-dihydro-quinazolin-2-yl)-butyryl]-piperidine-4-carbonyl}-benzoic Acid] | 4.8e-07 |  | 
11 |  |  | CC(C)CC(CC(=O)N1CCC(C(=O)c2cnn(C)c2)CC1)Cc1nc2ccccc2c(=O)[nH]1 (stereo in doubt) [Compound C11, 2-((R)-4-Methyl-2-{2-[4-(1-methyl-1H-pyrazole-4-carbonyl)-piperidin-1-yl]-2-oxo-ethyl}-pentyl)-3H-quinazolin-4-one] | 5e-09 |  | 
12 |  |  | COc1ccc(C(=O)C2CCN(C(=O)NCCc3nc4ccccc4c(=O)[nH]3)CC2)cc1 [Compound C29, 4-(4-Methoxy-benzoyl)-piperidine-1-carboxylic acid [2-(4-oxo-3,4-dihydro-quinazolin-2-yl)-ethyl]-amide] |  | 1.8e-09 | 8.4e-10
13 |  |  | Cn1cc(C(=O)C2CCN(C(=O)COCc3nc4ccccc4c(=O)[nH]3)CC2)cn1 [Compound C24, 2-{2-[4-(1-Methyl-1H-pyrazole-4-carbonyl)-piperidin-1-yl]-2-oxo-ethoxymethyl}-3H-quinazolin-4-one] | 1e-07 | 2.7e-08 | 1.2e-08
14 |  |  | COc1ccc(C(=O)C2CCN(C(=O)COCc3nc4c(F)cc(F)cc4c(=O)[nH]3)CC2)cc1 [Compound C26, 6,8-Difluoro-2-{2-[4-(4-methoxy-benzoyl)-piperidin-1-yl]-2-oxo-ethoxymethyl}-3H-quinazolin-4-one] | 2.3e-08 | 7.7e-09 | 3e-09
15 |  |  | Cc1cc(C(=O)C2CCN(C(=O)CC(C)(C)Cc3nc4c(C)cccc4c(=O)[nH]3)CC2)ccc1C(=O)O [Compound C41, 4-{1-[3,3-Dimethyl-4-(8-methyl-4-oxo-3,4-dihydro-quinazolin-2-yl)-butyryl]-piperidine-4-carbonyl}-2-methyl-benzoic Acid] | 1.1e-08 | 5.9e-10 | 8.8e-10
16 |  |  | COc1ccc(C(=O)C2CCN(C(=O)CCC(C)(C)c3nc4ccccc4c(=O)[nH]3)CC2)cc1 [Compound C15, 2-{4-[4-(4-Methoxy-benzoyl)-piperidin-1-yl]-1,1-dimethyl-4-oxo-butyl}-3H-quinazolin-4-one] | 6.2e-08 | 9.2e-09 | 5e-09
17 |  |  | CC(C)[C@@H](CC(=O)N1CCC(C(=O)c2cnn(C)c2)CC1)Cc1nc2ccccc2c(=O)[nH]1 [Compound C9, 2-((R)-3-Methyl-2-{2-[4-(1-methyl-1H-pyrazole-4-carbonyl)-piperidin-1-yl]-2-oxo-ethyl}-butyl)-3H-quinazolin-4-one] | 1.4e-07 |  | 
18 |  |  | CC(C)(CC(=O)N1CCC(C(=O)c2cccc(C(=O)O)c2)CC1)Cc1nc2ccccc2c(=O)[nH]1 [Compound C35, 3-{1-[3,3-Dimethyl-4-(4-oxo-3,4-dihydro-quinazolin-2-yl)-butyryl]-piperidine-4-carbonyl}-benzoic Acid] | 5.5e-06 |  | 
19 |  |  | C[C@@H](CC(=O)N1CCC(C(=O)c2cnn(C)c2)CC1)Cc1cc2ccccc2c(=O)[nH]1 [Compound C51, 3-{(R)-2-Methyl-4-[4-(1-methyl-1H-pyrazole-4-carbonyl)-piperidin-1-yl]-4-oxo-butyl}-2H-isoquinolin-1-one] | 1.2e-08 | 1e-09 | 7.2e-10
20 |  |  | COc1ccc(C(=O)C2CCN(C(=O)COCc3nc4ccccc4c(=O)[nH]3)CC2)cn1 [Compound C25, 2-{2-[4-(6-Methoxy-pyridine-3-carbonyl)-piperidin-1-yl]-2-oxo-ethoxymethyl}-3H-quinazolin-4-one] | 6.4e-08 | 3.6e-08 | 1.2e-08
21 |  |  | C[C@@H](CC(=O)N1CCC(C(=O)c2cnn(C)c2)CC1)Cc1nc2ccccc2c(=O)[nH]1 [Compound C3, 2-{(R)-2-Methyl-4-[4-(1-methyl-1H-pyrazole-4-carbonyl)-piperidin-1-yl]-4-oxo-butyl}-3H-quinazolin-4-one] | 3e-08 |  | 
22 |  |  | COc1ccc(C(=O)C2CCN(C(=O)N(C)CCc3nc4ccccc4c(=O)[nH]3)CC2)cc1 [Compound C30, 4-(4-Methoxy-benzoyl)-piperidine-1-carboxylic acid methyl-[2-(4-oxo-3,4-dihydro-quinazolin-2-yl)-ethyl]-amide] |  | 6.2e-10 | 5.7e-10
23 |  |  | Cn1cc(C(=O)C2CCN(C(=O)CCC(C)(C)c3nc4ccccc4c(=O)[nH]3)CC2)cn1 [Compound C14, 2-{1,1-Dimethyl-4-[4-(1-methyl-1H-pyrazole-4-carbonyl)-piperidin-1-yl]-4-oxo-butyl}-3H-quinazolin-4-one] |  | 6.3e-08 | 4.4e-08
24 |  |  | CC(C)[C@H](CC(=O)N1CCC(C(=O)c2cnn(C)c2)CC1)Cc1nc2ccccc2c(=O)[nH]1 [Compound C8, 2-((S)-3-Methyl-2-{2-[4-(1-methyl-1H-pyrazole-4-carbonyl)-piperidin-1-yl]-2-oxo-ethyl}-butyl)-3H-quinazolin-4-one] | 9.2e-09 |  | 
25 |  |  | CC(C)n1cc(C(=O)C2CCN(C(=O)C[C@H](C)Cc3nc4ccccc4c(=O)[nH]3)CC2)cn1 [Compound C5, 2-{(R)-4-[4-(1-Isopropyl-1H-pyrazole-4-carbonyl)-piperidin-1-yl]-2-methyl-4-oxo-butyl}-3H-quinazolin-4-one] | 3.9e-08 |  | 
26 |  |  | COC(=O)c1cccc(C(=O)C2CCN(C(=O)C[C@@H](C)Cc3nc4c(C)cccc4c(=O)[nH]3)CC2)c1 [Compound C43, 3-{1-[(S)-3-Methyl-4-(8-methyl-4-oxo-3,4-dihydro-quinazolin-2-yl)-butyryl]-piperidine-4-carbonyl}-benzoic Acid Methyl Ester] | 4.7e-10 |  | 
27 | 7.54 | 7.89 | Cn1cc(C(=O)C2CCN(C(=O)COCc3nc4c(F)cc(F)cc4c(=O)[nH]3)CC2)cn1 [Compound C27, 6,8-Difluoro-2-{2-[4-(1-methyl-1H-pyrazole-4-carbonyl)-piperidin-1-yl]-2-oxo-ethoxymethyl}-3H-quinazolin-4-one] |  |  | 
28 |  |  | Cc1cccc2c(=O)[nH]c(C[C@H](C)CC(=O)N3CCC(C(=O)c4cccc(C(=O)O)c4)CC3)nc12 [Compound C45, 3-{1-[(S)-3-Methyl-4-(8-methyl-4-oxo-3,4-dihydro-quinazolin-2-yl)-butyryl]-piperidine-4-carbonyl}-benzoic acid] | 8.9e-08 |  | 
29 |  |  | Cc1cccc2c(=O)[nH]c(C[C@@H](C)CC(=O)N3CCC(C(=O)c4cccc(C(=O)O)c4)CC3)nc12 [Compound C44, 3-{1-[(R)-3-Methyl-4-(8-methyl-4-oxo-3,4-dihydro-quinazolin-2-yl)-butyryl]-piperidine-4-carbonyl}-benzoic Acid] | 5.3e-06 |  | 
